Data taken from paper PMC3942691, “The Dipeptide Monoester Prodrugs of Floxuridine and Gemcitabine—Feasibility of Orally Administrable Nucleoside Analogs” (Pharmaceuticals, 2014).

Assays:
mouse jejunum = experiment: In situ single-pass intestinal perfusion in mice (Peff); assay type: in vivo; conditions: for Peff, mouse perfusion: 100 µM; for fold higher membrane permeability than parent drug: in situ
Protocol: The perfusion buffer (pH6.0) consisted of 145 mM NaCl, 0.5 mM MgCl2, 1 NaH2PO4, 1 mM CaCl2, 3 mM KCl, 5 mM glucose, and 5 mM MES. The pH of the buffer was adjusted to pH6.0. This perfusion buffer also contained phenol-red (14 µM) as a non-absorbable marker for water flux measurements.
(§1) All animal experiments were conducted using protocols approved by the University of Michigan Committee of Use and Care of Animals (UCUCA). Female BALB/c mice (Charles River, IN, USA) weighing 20–25 g were used for all perfusion studies. Prior to each experiment, mice were fasted overnight with free access to water.
The procedure for the in situ single-pass intestinal perfusion is previously reported. Briefly, mice were anesthetized with an i.m. injection of ketamine-xylazine mixture (ketamine: 80–120 mg/kg, xylazine: 5–10 mg/kg) and placed on a heated pad maintained at 37 °C. The abdomen was opened by a midline incision and a jejunal segment (approximately 10 cm) was carefully exposed to cannulate both ends with flexible PVC tubing (2.06 mm i.d., Fisher Scientific Inc., Pittsburgh, PA, USA). All solutions were incubated in a 37 °C water-bath. The isolated segment was rinsed with blank perfusion buffer to clean out any residual debris.
(§2) At the start of the study, the test compound (100 µM) in perfusion buffer (pH 6.0) including phenol red was perfused through the intestinal segment (Watson-Marlow Pump 323S, Watson-Marlow Bredel Inc., Wilimington, MA, USA), at the flow rate of 0.1 mL/min. The perfusion buffer was perfused for 30 min to assure steady-state and samples were taken in every 10 min for 90 min. At the end of perfusion, blood samples were collected by cardiac puncture. Blood samples with heparin were centrifuged at 1,000 × g for 10 min at 4 °C to collect plasma samples for LC-MS analysis. Following the termination of the experiment, the length of each perfused intestinal segment was measured.
The net water flux in the mouse perfusion studies was determined using phenol red (14 µM), a non-absorbed and non-metabolized marker. The measured Cout/Cin ratio of test compound was corrected for water flux according to the following equation: [drawing 1] where Cin phenol red and Cout phenol red are equal to the concentration of phenol red in the inlet and the outlet samples, respectively. The effective permeability (Peff; cm/s) through the mouse intestinal wall in the single-pass intestinal perfusion studies was determined according to the following equation: [drawing 2] where Q is the perfusion buffer flow rate (0.1 mL/min), C′out/C′in is the ratio of the outlet/inlet concentration of test compound that is adjusted for water transport, R is the radius of the intestinal segment (set to 0.1 cm), and L is the length of the perfused intestinal segment.
(§3) The stability samples of prodrugs and their metabolites, and perfusion samples were determined on an Agilent HPLC system (Agilent Technologies, Santa Clara, CA, USA). The HPLC system consisted of Agilent pumps (1100 series), an Agilent autosampler (1200 series), and an Agilent UV-Vis detector (1100 series) controlled by Chemstation® 32 software (version B.01.03). Samples were resolved in an Agilent Eclipse Plus C18 reverse-phase column (3.5 µm, 4.6 × 75 mm) equipped with a guard column. The mobile phase consisted of 0.1% TFA/water (Solvent A) and 0.1% TFA/acetonitrile (Solvent B) with the solvent B gradient changing from 0%–56% at a rate of […] during a 15 min run for gemcitabine and gemcitabine prodrugs. Standard curves generated for each prodrug and their parent drug were utilized for quantitation of integrated area under peaks. The detection wavelength was 254 nm and spectra were acquired in the 220–380 nm wavelength range. The detection wavelength for phenol red was 430 nm.

[1] = Drug concentration and species in mouse plasma after in situ perfusion; assay type: in vivo; conditions: for parent drug, share of totally observed amount in plasma: parent drug perfused; for parent drug, share of totally observed amount in plasma / first metabolite (5-FU or cytosine) in plasma: mouse plasma after in situ perfusion; for prodrug form, share of totally observed amount in plasma: mouse plasma at 2 h following in situ perfusion
Protocol: as §1, §2
The LC-MS analytical method of 5′-mono amino acid ester prodrugs of floxuridine has been reported previously. The LC-MS analysis of dipeptide monoester prodrugs of floxuridine and gemcitabine along with their parent drugs was modified and performed in a similar manner. Briefly, LC-MS analysis of the uptake drug amount was performed in triplicate on LCMS-2010EV (Shimadzu Scientific Instruments, Kyoto, Japan) equipped with an ESI (electrospray ionization) source. The Shimadzu LC-MS system consisting of Shimadzu LC-20AD pumps with DGU-20A in-line vacuum degasser units, and SIL-20A HT autosampler with an InertSustain C-18, 2.1 × 50 mm, 3 µm particle size, (GL Sciences, Torrance, CA, USA) was used for the separation and the effluent from the column was introduced directly to the ionization source. The system was controlled by Shimadzu LCMS solution software (version 3) to collect and process data. All samples were run with Solvent A and Solvent B with Solvent B gradient changing from 0%–90% at a rate of 13.8%/min over a 22 min run. The mobile phase consisted of 0.1% TFA/water (Solvent A) and 0.1% TFA/acetonitrile (Solvent B) for gemcitabine, gemcitabine prodrug and floxuridine prodrug. The mobile phase consisted of 0.1% ammonium hydroxide/water (Solvent A) and 0.1% ammonium hydroxide /acetonitrile (Solvent B) for floxuridine. The ESI probe was operated with a detector voltage of 1.5 kV, CDL temperature of 250 °C, heat block of 200 °C, and nebulizing gas flow of […] in positive mode for gemcitabine prodrugs and their metabolites. The drying gas was N2 delivered at 0.1 MPa.

[2] = Enzymatic stability in Panc-1 cell homogenates; assay type: in vitro ADME; conditions: human, Panc-1 cell homogenates, pH 7.4; 500 µg/mL protein, 37 °C; read-out: Panc-1 cell homogenates t1/2
Protocol: Confluent Caco-2, Panc-1, and AsPC-1cells were rinsed twice with phosphate buffered saline (PBS). The cells were lysed with phosphate buffer (pH 7.4) by ultrasonication (Micro ultrasonic cell disrupter Model KT40, Kontes, Vineland, NJ, USA), and pelleted by centrifugation for 5 min at 1,000 × g. Protein amount was quantified with the Bio-Rad (Hercules, CA, USA) DC Protein Assay using bovine serum albumin as a standard. The amount of protein was adjusted to 500 µg/mL and hydrolysis reactions were carried out in 96-well plates (Corning). Caco-2, Panc-1, and AsPC-1 cell suspensions (250 µL) were placed in triplicate wells, the reactions were started with the addition of substrate, and cells were incubated at 37 °C for 120 min. At the desired time point, sample aliquots (35 µL) were removed and added to acetonitrile (ACN, 150 µL) with 0.1% TFA. The mixtures were filtered with a 0.45 µm filters at 1,000 × g for 10 min at 4 °C. The filtrate was then analyzed via reverse-phase HPLC.
as §3
The experiments concerning drug and their prodrug stability were performed at 37 °C in 0.01 N HCl, SIF (pH 6.0), and pH 7.4 phosphate buffer. […] Prodrug metabolites such as floxuridine, 5-fluorouracil (5-FU), gemcitabine, 2′-deoxy-2′,2′-difluorouridine, uracil, and cytosine were monitored along with prodrug disappearance in this experiment.

2′,2′-difluoro-2′-deoxyuridine [Gemcitabine]
Peff, mouse perfusion (mouse jejunum; perfusion buffer pH 6.0): 0.2 ± 0.2 ×10^−5 cm/s
Peff, mouse perfusion (mouse jejunum; perfusion buffer pH 6.0, listed as gemcitabine): 2e-06 cm/s
parent drug, share of totally observed amount in plasma [1]: 83%

NC(Cc1ccccc1)C(=O)NC(Cc1ccc(O)cc1)C(=O)OCC1OC(n2cc(F)c(=O)[nH]c2=O)CC1O [5′-L-Phenylalanyl-L-tyrosyl-floxuridine]
half-life [2]: 40.4 ± 0.2 min
Peff, mouse perfusion (mouse jejunum; perfusion buffer pH 6.0): 1.9 ± 0.1 ×10^−5 cm/s
fold higher membrane permeability than parent drug (mouse jejunum): 19.0 fold
drug concentration in mouse plasma, rank among tested compounds ([1]; after in situ perfusion): highest drug concentration
first metabolite (5-FU or cytosine) in plasma [1]: not observed
prodrug form, share of totally observed amount in plasma [1]: 81%

Nc1ccn(C2OC(COC(=O)C(Cc3ccc(O)cc3)NC(=O)C(N)Cc3ccccc3)C(O)C2(F)F)c(=O)n1 [5′-L-Phenylalanyl-L-tyrosyl-gemcitabine]
half-life [2]: 30.2 ± 1.1 min
Peff, mouse perfusion (mouse jejunum; perfusion buffer pH 6.0): 2.2 ± 0.4 ×10^−5 cm/s
fold higher membrane permeability than parent drug (mouse jejunum): 11.0 fold
first metabolite (5-FU or cytosine) in plasma [1]: one-third
prodrug form, share of totally observed amount in plasma [1]: 40%

O=c1[nH]c(=O)n([C@H]2C[C@H](O)[C@@H](CO)O2)cc1F [Floxuridine, 5-fluoro-2′-deoxyuridine]
half-life [2]: 41.7 ± 6.8 min
Peff, mouse perfusion (mouse jejunum; perfusion buffer pH 6.0): 0.1 ± 0.8 ×10^−5 cm/s
Peff, mouse perfusion (mouse jejunum; perfusion buffer pH 6.0, listed as floxuridine): 1e-06 cm/s
parent drug, share of totally observed amount in plasma [1]: only drug observed
